Active and inactive are the calls of the source. The calls are words filed in the database; no cut-off is given here.

Data set [1] relates to Salmonella typhimurium. The data set can be described thus: Antimutagenic activity in Salmonella Typhimurium T98 assessed as inhibition of 2-aminoanthracene-induced mutation at 300 ug/plate. Type of data set: functional, organism-based. Particulars: Salmonella enterica subsp. enterica serovar Typhimurium.
The test system of data set [2] is Salmonella typhimurium. The data set is described as follows: Antimutagenic activity in Salmonella Typhimurium T98 assessed as inhibition of 2-aminoanthracene-induced mutation at 150 ug/plate. Conditions: Salmonella enterica subsp. enterica serovar Typhimurium. The class given is functional, organism-based.
Data set [3] relates to Salmonella typhimurium. The data set is described as follows: Toxicity in Salmonella Typhimurium T98 at 75 to 300 ug/plate in presence of histidine. Type of data set: organism-based, Salmonella enterica subsp. enterica serovar Typhimurium.
Data set [4] relates to Salmonella typhimurium. The data set is described as follows: Toxicity in Salmonella Typhimurium T100 at 75 to 300 ug/plate in presence of histidine. The class given is organism-based, Salmonella enterica subsp. enterica serovar Typhimurium.
Data set [5] deals with Salmonella typhimurium. The data set can be described thus: Antimutagenic activity in Salmonella Typhimurium T98 assessed as inhibition of 2-aminoanthracene-induced mutation at 75 ug/plate. The class given is functional, organism-based. Particulars: Salmonella enterica subsp. enterica serovar Typhimurium.
The test system of data set [6] is Salmonella typhimurium. The data set can be described thus: Toxicity in Salmonella Typhimurium T100 at 75 to 600 ug/plate in presence of histidine. The class given is organism-based, Salmonella enterica subsp. enterica serovar Typhimurium.
Data set [7] has as its system Salmonella typhimurium. The data set can be described thus: Toxicity in Salmonella Typhimurium T98 at 75 to 600 ug/plate in presence of histidine. The class given is organism-based, Salmonella enterica subsp. enterica serovar Typhimurium.
For data set [8], the system named is Salmonella typhimurium. The data set can be described thus: Antimutagenic activity in Salmonella Typhimurium T100 assessed as inhibition of ethyl methanesulfonate-induced mutation at 32.5 to 300 ug/plate in presence of Ames S9 fractions. The class given is functional, Salmonella enterica subsp. enterica serovar Typhimurium.

For the compound `CC1(C)[C@@H](Br)CC[C@]2(C)Oc3cc(Br)c(O)cc3C[C@@H]12`, the result in data set [1], in data set [2] and in data set [5] was Active. In addition, the Activity entry in data set [3] and in data set [4] was “Non-toxic” each time.
`CC(C)=CCC/C(C)=C/Cc1cc(O)c(Br)cc1O` [CYMOPOL]: the Activity result in data set [6] and in data set [7] was “Toxic” each time.
As for `CC1(C)[C@@H](Br)CC[C@@]2(C)Oc3cc(Br)c(O)cc3C[C@@H]12` [CYMOBARBATOL], the outcome in data set [1] and in data set [2] was Active. The Activity entry in data set [3] and in data set [4] was “Non-toxic” throughout. Also, in data set [8], the “inhibition (INH)” value came to 80%.
